Results on one molecule are retold here after US20240002425A1, “NOVEL AMINOALKYL GLUCOSAMINIDE 4-PHOSPHATE DERIVATIVE” (DAIICHI SANKYO COMPANY, LIMITED, priority 2020, published 2024).

The subject of this test is binding between RBD and hACE2. The conditions noted are these: in vivo.

Consider `CCCCCCCCCCC[C@H](CC(=O)N[C@@H](CO[C@@H]1O[C@H](CO[C@]2(C(=O)O)C[C@@H](O)[C@@H](O)[C@@H]([C@H](O)CO)O2)[C@@H](OP(=O)(O)O)[C@H](OC(=O)C[C@@H](CCCCCCCCCCC)OC(=O)CCCCCCCCC)[C@H]1NC(=O)C[C@@H](CCCCCCCCCCC)OC(=O)CCCCCCCCC)CC(=O)O)OC(=O)CCCCCCCCC` [Example 2(2e), Ammonium (3R)-3-{[(3R)-3-(decanoyloxy)tetradecanoyl]amino}-4-({3-O-[(3R)-3-(decanoyloxy)tetradecanoyl]-2-{[(3R)-3-(decanoyloxy)tetradecanoyl]amino}-2-deoxy-6-O-(3-deoxy-α-D-manno-oct-2-ulopyranonosyl)-4-O-phosphono-β-D-glucopyranosyl}oxy)butanoate], for which the “inhibition of binding between RBD and hACE2 by nasal wash” value is “inhibited the binding between RBD and hACE2”.
